In one experiment the test system is CXCL-1. Nature of the experiment: Muscle damage-protecting effect using myotube cell: CXCL-1 gene expression by quantitative real time PCR after H2O2 treatment. The class given is cell-based, mouse. The following applies: C2C12 myotube cell, 10 μg/ml for 24 hours, then 1 mM H2O2 for 2 hours, relative to GAPDH, compared to hydrogen peroxide group, FIG. 4. As for the experimental part: (§1) In this evaluation system, the C2C12 myoblast cell line derived from a mouse was used. The cell line is preserved in RIKEN BIORESOURCE CENTER, Japan, and the cell line can be shared. The cell is differentiated from a mononuclear myoblast cell into a maltinuclear myotube cell by differentiation induction, to thereby have a muscle fiber-like form. The cell was seeded in a collagen I-coated 35-mm dish and cultured in DMEM (11965-092, manufactured by GIBCO)+10% FBS (hereinafter, may be referred to as a growth medium) at 37° C. under 5% CO2 until the culture had 90% confluence. […] The concentration of the purified total RNA was determined based on the measurement results of the absorbance (260 nm, 280 nm). […] A quantitative real time PCR was performed by using the obtained cDNA. In the quantitative real time PCR, qPCR super mix-UDG with ROX was used as a reaction reagent, as primers for IL-6 and CXCL-1, Mm00446190 (manufactured by AB Corporation) and Mm00433859 (manufactured by AB Corporation) were used, respectively, and as a primer for […] (hereinafter, may be referred to as GAPDH) which was used as an internal standard, Mm99999915 (manufactured by AB Corporation) was used. […]

The next experiment deals with IL-6. As to the kind of experiment: Muscle damage-protecting effect using myotube cell: IL-6 gene expression by quantitative real time PCR after H2O2 treatment. Type of experiment: cell-based, mouse. The note with it: C2C12 myotube cell, 10 μg/ml for 24 hours, then 1 mM H2O2 for 2 hours, relative to GAPDH, compared to hydrogen peroxide group, FIGS. 3 and 4. As for the experimental part:
as §1

The record followed here is US20100047374A1, “COMPOSITION FOR PROTECTING MUSCLE DAMAGE” (priority 2007, published 2010).

Take `CCCCCCCCCCCCCCC[C@@H](O)[C@@H](N)CO` (single isomer, unassigned) [sphinganine]: the “gene expression of CXCL-1” value with CXCL-1 is “effect of inhibiting”. Besides, the “gene expression of IL-6” value in the experiment with IL-6 is listed as “effect of inhibiting”.
